Measurements as given in ChEMBL document CHEMBL2412954, “Synthesis and characterization of time-resolved fluorescence probes for evaluation of competitive binding to melanocortin receptors” (Bioorg Med Chem, 2013).
pKi: −log10 of the molar value.

Legend:
Melanocortin receptor 4 [1] = target: T1, Melanocortin receptor 4 (Homo sapiens, UniProt P32245); test: Displacement of Eu-DTPA-PEGOMSH(7) from human MC4R expressed in […] cells after 1 hr by time-resolved fluorescence assay; format: cell-based, HEK293; conditions: for Ki: hek293; for pKi: read-out: Ki
Melanocortin receptor 4 [2] = target: T1, Melanocortin receptor 4; test: Displacement of Eu-DTPA-PEGO-NDP-alpha-MSH-NH2 from human MC4R expressed in […] cells after 1 hr by time-resolved fluorescence assay; format: cell-based, HEK293; conditions: for Ki: hek293

T1 sequence (P32245 whole entry): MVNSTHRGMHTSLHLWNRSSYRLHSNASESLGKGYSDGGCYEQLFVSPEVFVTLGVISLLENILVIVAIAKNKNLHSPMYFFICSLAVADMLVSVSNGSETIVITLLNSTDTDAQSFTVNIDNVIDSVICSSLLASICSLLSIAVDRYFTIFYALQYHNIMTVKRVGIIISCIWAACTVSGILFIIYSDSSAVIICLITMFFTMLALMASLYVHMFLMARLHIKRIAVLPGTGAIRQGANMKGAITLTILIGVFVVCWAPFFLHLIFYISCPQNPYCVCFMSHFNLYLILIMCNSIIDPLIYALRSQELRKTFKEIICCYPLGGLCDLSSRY

Ki (Melanocortin receptor 4 [1])	Ki (Melanocortin receptor 4 [2])	pKi (Melanocortin receptor 4 [1])	pKi (Melanocortin receptor 4 [2]; read-out: Ki)	SMILES
Not Active	Not Active	–	–	CC(C)C(O)CCC(C)C(O)CCC(C)C(O)CCC(OCCCCc1cn(CCCCCC(=O)N[C@@H](CO)C(N)=O)nn1)C(C)CCC(O)C(C)CCC(O)C(C)C (some centres not stated)
Not Active	Not Active	–	–	CC(C)C(O)CCC(C)C(O)CCC(C)C(CCC(O)C(C)CCC(O)C(C)CCC(OCCCCc1cn(CCCCCC(=O)N[C@@H](CO)C(N)=O)nn1)C(C)C)OCCCCc1cn(CCCCCC(=O)N[C@@H](CO)C(N)=O)nn1 (some centres not stated)
–	–	8.62	7.48	CCCC[C@H](NC(=O)[C@H](CO)NC(=O)CCCCCn1cc(CCCCOC(CCC(O)C(C)CCC(O)C(C)CCC(O)C(C)C)C(C)CCC(O)C(C)CCC(O)C(C)C)nn1)C(=O)N[C@@H](CCC(=O)O)C(=O)N[C@@H](Cc1cnc[nH]1)C(=O)N[C@H](Cc1ccccc1)C(=O)N[C@@H](CCCNC(=N)N)C(=O)N[C@@H](Cc1c[nH]c2ccccc12)C(N)=O (some centres not stated)
–	–	8.77	–	CCCC[C@H](NC(=O)[C@H](CO)NC(=O)CCCCCn1cc(CCCCOC(CCC(C)C(O)CCC(C)C(O)CCC(OCCCCc2cn(CCCCCC(=O)N[C@@H](CO)C(=O)N[C@@H](CCCC)C(=O)N[C@@H](CCC(=O)O)C(=O)N[C@@H](Cc3cnc[nH]3)C(=O)N[C@H](Cc3ccccc3)C(=O)N[C@@H](CCCNC(=N)N)C(=O)N[C@@H](Cc3c[nH]c4ccccc34)C(N)=O)nn2)C(C)CCC(O)C(C)CCC(O)C(C)C)C(C)C)nn1)C(=O)N[C@@H](CCC(=O)O)C(=O)N[C@@H](Cc1cnc[nH]1)C(=O)N[C@H](Cc1ccccc1)C(=O)N[C@@H](CCCNC(=N)N)C(=O)N[C@@H](Cc1c[nH]c2ccccc12)C(N)=O (some centres not stated)
